Target: T1, Stat5a (Homo sapiens, UniProt P42229)
T1 sequence (P42229 1-794): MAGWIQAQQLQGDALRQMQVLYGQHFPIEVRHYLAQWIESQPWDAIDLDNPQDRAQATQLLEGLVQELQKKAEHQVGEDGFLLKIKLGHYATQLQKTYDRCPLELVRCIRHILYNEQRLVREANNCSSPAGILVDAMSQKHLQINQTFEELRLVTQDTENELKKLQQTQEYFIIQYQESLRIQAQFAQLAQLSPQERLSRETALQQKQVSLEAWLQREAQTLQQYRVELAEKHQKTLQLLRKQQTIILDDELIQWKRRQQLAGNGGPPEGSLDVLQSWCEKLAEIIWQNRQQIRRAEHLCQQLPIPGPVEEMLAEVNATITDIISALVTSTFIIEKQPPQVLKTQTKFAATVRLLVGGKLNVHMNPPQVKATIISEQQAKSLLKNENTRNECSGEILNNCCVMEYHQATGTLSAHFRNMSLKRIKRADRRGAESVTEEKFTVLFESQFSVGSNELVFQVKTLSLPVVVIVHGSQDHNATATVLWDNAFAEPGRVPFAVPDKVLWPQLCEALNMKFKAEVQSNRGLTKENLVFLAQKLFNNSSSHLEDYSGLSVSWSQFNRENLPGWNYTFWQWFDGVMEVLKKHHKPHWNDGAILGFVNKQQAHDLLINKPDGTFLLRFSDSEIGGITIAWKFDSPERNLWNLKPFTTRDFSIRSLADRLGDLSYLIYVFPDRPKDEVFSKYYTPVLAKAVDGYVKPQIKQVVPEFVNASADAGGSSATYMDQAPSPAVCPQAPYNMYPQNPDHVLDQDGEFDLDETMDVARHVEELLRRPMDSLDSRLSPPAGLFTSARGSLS
Test: Prolactin-induced Stat5a phosphorylation in CWR22Rv1 prostate cells (immunoprecipitation/Western blot)
Format: cell-based
Conditions: CWR22Rv1, 12, 25, 50 and 100 μM for 2 h, then 10 nM Prl 30 minutes
Protocol: CWR22Rv1 cells were starved for 24 h in serum-free medium, treated with Compound 2 at 12, 25, 50 and 100 μM concentrations for 2 h, followed by stimulation with 10 nM Prl for 30 minutes. Stat5a was immunoprecipitated with anti-Stat5a pAb (4 gg/ml, Millipore, Billerica, Mass.). Immunoprecipitates of CWR22Rv1 cells were blotted with anti-phospho-Stat5ab mAb (1 μg/ml, Advantex BioReagents, Conroe, Tex.) or anti-Stat5a/b mAb (BD Biosciences, San Jose, Calif.). Whole cell lysates were immunoblotted with anti-actin pAb for loading control.
The protocol in more detail comprised the following. Cell pellets were solubilized in lysis buffer [10 mM Tris-HCl (pH 7.6), 5 mM EDTA, 50 mM sodium chloride, 30 mM sodium pyrophosphate, 50 mM sodium fluoride, 1 mM sodium orthovanadate, 1% Triton X-100, 1 mM phenylmethylsulfonyl fluoride, 5 μg/ml aprotinin, 1 μg/ml pepstatin A, and 2 μg/ml leupeptin], rotated end-over-end at 4° C. for 60 min, and insoluble material was pelleted at 12,000×g for 30 min at 4° C. The protein concentrations of clarified cell lysates were determined by simplified Bradford method (Bio-Rad Laboratories, Hercules, Calif.). Stat5a was immunoprecipitated from whole cell lysates with anti-Stat5a (4 μl/ml; Millipore, Billerica, Mass.) pAb. Antibody was captured by incubation for 60 min with protein A-Sepharose beads (Amersham Pharmacia Biotech, Piscataway, N.J.). […]

effect on Stat5a phosphorylation: inhibits Stat5a phosphorylation
SMILES: OC[C@H]1O[C@@H](n2cnc3c(NNc4ccccc4)ncnc32)[C@H](O)[C@@H]1O [Compound 2, (2R,3S,4R,5R)-2-(hydroxymethyl)-5-(6-(2-phenylhydrazinyl)-9H-purin-9-yl)tetrahydrofuran-3,4-diol]

Source: US20150209379A1, “TREATMENT OF PROSTATE CANCER AND HEMATOLOGIC NEOPLASMS” (THOMAS JEFFERSON UNIVERSITY, priority 2012, published 2015)
